We go through ten molecules from ChEMBL document CHEMBL1201862, “PubChem BioAssay data set” (2004).

Molecules are shown by their SMILES.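 These data come from cells grown in 96-well plates and exposed to compound for 48 hours at five concentrations. Here, GI50 denotes the concentration required for 50% inhibition of growth.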 Calls of active or inactive are those of the source. Cut-off read from the data, not from the text of the source: active = GI50 up to about 1.1 µM and inactive = higher. Residues, ends and D or L forms follow the SMILES beside them. Groups on a side chain read outwards from the residue. *: point of attachment. Cbz = O=C(OCc1ccccc1)*; Boc = CC(C)(C)OC(=O)*

Among the test systems are 786-0; A549; EKVX; HOP-62; HT-29; M14; MDA-MB-435; MOLT-4; NCI-H23; OVCAR-8; SF-295; SF-539; SK-MEL-5; SN12C; SR; TK-10; U-251; UACC-62; IGROV-1; RXF 393.
What all share (assay): NCI anticancer screen, dose series, 48 h

Consider `Clc1cc(Cl)c2cc3cccc[n+]3cc2c1Cl`, for which the GI50 is 18.7 µM (inactive) with 786-0; 17.2 µM (inactive) in the test on A549; 13.8 µM (inactive) in the test on EKVX; 15.6 µM (inactive) in the test on HOP-62; 15.5 µM (inactive) in the test with HT-29; 17.5 µM (inactive) with M14. Moreover, the GI50 was 16.3 µM (inactive) in the test on MDA-MB-435; 14 µM (inactive) in the test with MOLT-4; 16.1 µM (inactive) in the test with NCI-H23; 15.1 µM (inactive) with OVCAR-8; 18 µM (inactive) in the test on SF-295; 18.3 µM (inactive) in the test with SF-539. Also, the GI50 with SK-MEL-5 is 16 µM (inactive); in the test with SN12C, 17.9 µM (inactive); in the test on SR, 12.2 µM (inactive); in the test on TK-10, 18.7 µM (inactive); with U-251, 16.7 µM (inactive); in the test with UACC-62 it was 15.3 µM (inactive).

As for `COc1cccc(OCC(=N/NC(=O)c2ccncc2)/N=C/c2cccnc2)c1`, the GI50 with 786-0, in the test on A549, in the test with EKVX, with HOP-62, with HT-29 and in the test on IGROV-1 was > 100 µM (inactive) throughout. Also, the GI50 in the test on M14 is > 100 µM (inactive); in the test with MDA-MB-435, > 100 µM (inactive); in the test with MOLT-4 it was 49.7 µM (inactive); in the test with NCI-H23, > 100 µM (inactive); in the test with OVCAR-8, 86.3 µM (inactive); with RXF 393 it was > 100 µM (inactive). Moreover, the GI50 in the test on SF-295, in the test on SF-539, in the test with TK-10, with U-251 and in the test on UACC-62 was > 100 µM (inactive) each time.

Take `CCOC(=O)C(C(=O)c1ccccc1C(=O)OC)=P(c1ccccc1)(c1ccccc1)c1ccccc1`: the GI50 in the test with 786-0, in the test on A549, in the test on EKVX, in the test with HOP-62, in the test on HT-29 and with IGROV-1 was > 10 µM (inactive) in each case. The GI50 in the test with M14, with MDA-MB-435, with MOLT-4, with NCI-H23, with OVCAR-8 and in the test on RXF 393 was > 10 µM (inactive) in each case. Further, the GI50 with SF-295, in the test on SF-539, in the test with SK-MEL-5, in the test with SN12C, in the test on TK-10 and in the test on U-251 was > 10 µM (inactive) throughout. Also, the GI50 with UACC-62 is > 10 µM (inactive).

Consider `S=C(/N=c1\sc(NCc2ccccc2)nc2sc3c(c12)CCN(N1CCc2c(sc4nc(NCc5ccccc5)s/c(=N\C(=S)NCc5ccccc5)c24)C1)C3)NCc1ccccc1`, for which the GI50 in the test with 786-0 was 9.64 µM (inactive); with A549, 27.4 µM (inactive); in the test with EKVX it was 19.9 µM (inactive); in the test with HOP-62 it was 27.5 µM (inactive); with HT-29, 22.6 µM (inactive); in the test on IGROV-1, 28 µM (inactive). Also, the GI50 was 42.9 µM (inactive) in the test on M14; 42.9 µM (inactive) with MDA-MB-435; 14.3 µM (inactive) in the test with MOLT-4; 24.6 µM (inactive) in the test on NCI-H23; 20.9 µM (inactive) in the test with OVCAR-8; 36.1 µM (inactive) in the test with RXF 393. The GI50 in the test with SF-295 is 59.3 µM (inactive); with SF-539 it was 23.4 µM (inactive); in the test on SK-MEL-5, 87.5 µM (inactive); in the test on SN12C it was 16.2 µM (inactive); in the test on TK-10 it was 48.9 µM (inactive); in the test with U-251 it was 10.5 µM (inactive). In the test on UACC-62, the GI50 is 38.6 µM (inactive).

Turning to `COc1ccccc1C(=O)N(Cc1ccccc1)c1ccc(Cl)c(C(=O)OC(C)C)c1`, the GI50 in the test with 786-0 is 25.9 µM (inactive); with A549 it was 19.4 µM (inactive); in the test with EKVX, 16.7 µM (inactive); with HOP-62, 18.8 µM (inactive); in the test on HT-29, 16.6 µM (inactive); in the test on IGROV-1 it was 25.8 µM (inactive). Further, the GI50 in the test with M14 is 20.7 µM (inactive); with MDA-MB-435 it was 27 µM (inactive); with MOLT-4, 14.4 µM (inactive); with NCI-H23, 20.6 µM (inactive); with OVCAR-8, 27.8 µM (inactive); in the test on RXF 393, 11.8 µM (inactive). In addition, the GI50 in the test on SF-295 was 14.3 µM (inactive); with SF-539, 30.6 µM (inactive); in the test on SK-MEL-5, 11.7 µM (inactive); in the test on SN12C, 27.6 µM (inactive); with TK-10, 26.8 µM (inactive); with U-251, 36.6 µM (inactive). In addition, the GI50 with UACC-62 is 19.8 µM (inactive).

For the molecule `CC(C)NCCC(O)c1cc2ccccc2o1` (stereo unspecified), the GI50 with 786-0, in the test on A549, in the test on EKVX, in the test with HOP-62, in the test with HT-29 and in the test on IGROV-1 was > 100 µM (inactive) each time. The GI50 with M14 is > 100 µM (inactive); in the test on MDA-MB-435, > 100 µM (inactive); with MOLT-4, 20.4 µM (inactive); in the test on NCI-H23, > 100 µM (inactive); with OVCAR-8 it was > 100 µM (inactive); with RXF 393, > 100 µM (inactive). Also, the GI50 in the test on SF-295 is > 100 µM (inactive); in the test on SF-539 it was > 100 µM (inactive); in the test on SK-MEL-5 it was > 100 µM (inactive); with SN12C, 30.1 µM (inactive); with TK-10 it was > 100 µM (inactive); in the test with U-251 it was > 100 µM (inactive). Moreover, in the test on UACC-62, the GI50 is > 100 µM (inactive).

On to `OC(c1cc2ccc(C(F)(F)F)cc2c2cc(C(F)(F)F)ccc12)C1CCCCN1` (stereo unspecified), for which the GI50 is 1.58 µM (inactive) in the test with 786-0; 1.8 µM (inactive) in the test on A549; 0.428 µM (active) with EKVX; 1.85 µM (inactive) in the test with HOP-62; 2.07 µM (inactive) with HT-29; 1.74 µM (inactive) with IGROV-1. The GI50 is 1.88 µM (inactive) in the test on M14; 1.48 µM (inactive) with MDA-MB-435; 1.41 µM (inactive) in the test with MOLT-4; 1.66 µM (inactive) in the test with NCI-H23; 1.69 µM (inactive) with SF-539; 1.56 µM (inactive) in the test on SK-MEL-5. Besides, the GI50 with SN12C was 1.74 µM (inactive); in the test with SR, 2.38 µM (inactive); in the test on TK-10 it was 1.73 µM (inactive); in the test on U-251 it was 1.71 µM (inactive); with UACC-62, 2.06 µM (inactive).

As to `COc1c(N2CCCCC2)c2c(=O)c3ccccc3oc2c2c3ccccc3n(C)c12`, the GI50 with 786-0 was > 100 µM (inactive); in the test with A549, > 100 µM (inactive); in the test on EKVX, > 100 µM (inactive); with HOP-62, > 100 µM (inactive); in the test on HT-29 it was 42.4 µM (inactive); in the test on M14, > 100 µM (inactive). Besides, the GI50 was > 100 µM (inactive) in the test on MDA-MB-435; 54.8 µM (inactive) in the test on MOLT-4; > 100 µM (inactive) in the test on NCI-H23; > 100 µM (inactive) in the test with OVCAR-8; 94.6 µM (inactive) in the test with RXF 393; > 100 µM (inactive) with SF-295. Besides, the GI50 in the test with SF-539 is > 100 µM (inactive); in the test on SK-MEL-5, > 100 µM (inactive); in the test with SN12C it was 47.6 µM (inactive); with TK-10, > 100 µM (inactive); in the test with U-251 it was > 100 µM (inactive); in the test with UACC-62 it was > 100 µM (inactive).

For the molecule `CCC1(O)C(=O)OCc2c1cc1n(c2=O)Cc2cc3cc(N)ccc3nc2-1` (stereo unspecified), the GI50 with 786-0 is < 0.01 µM (active); in the test with A549, 0.0103 µM (active); in the test on EKVX, 0.855 µM (active); in the test with HOP-62, < 0.01 µM (active); in the test on HT-29 it was 0.0311 µM (active); in the test on IGROV-1, 0.109 µM (active). For the same molecule, the GI50 is < 0.01 µM (active) in the test with M14; 0.0241 µM (active) in the test with MDA-MB-435; < 0.01 µM (active) in the test on MOLT-4; < 0.01 µM (active) in the test with NCI-H23; < 0.0128 µM (active) in the test on OVCAR-8; < 0.01 µM (active) in the test on SF-295. The GI50 in the test on SF-539 is < 0.01 µM (active); in the test on SK-MEL-5 it was < 0.0136 µM (active); in the test with SN12C, < 0.01 µM (active); with SR, < 0.01 µM (active); with TK-10 it was 1.9 µM (inactive); in the test with U-251, < 0.01 µM (active). For the same molecule, the GI50 with UACC-62 was < 0.01 µM (active).

With `CC(C)(C)OC(=O)NC(CCCCNC(=O)CNC(=O)OCc1ccccc1)C(=O)NC(CCCCNC(=O)CNC(=O)OCc1ccccc1)C(=O)NC(CCCCNC(=O)CNC(=O)OCc1ccccc1)C(=O)NC(CCCCNC(=O)CNC(=O)OCc1ccccc1)C(=O)O` (stereo unspecified) (Boc-K([Gly-Cbz])K([Gly-Cbz])K([Gly-Cbz])K([Gly-Cbz])-OH; configuration not given here), the GI50 in the test on 786-0, in the test with A549, in the test on HOP-62, in the test on HT-29, in the test with IGROV-1 and with M14 was > 100 µM (inactive) each time. The GI50 in the test on MDA-MB-435 was > 10 µM (inactive); with MOLT-4, > 100 µM (inactive); in the test with NCI-H23 it was > 100 µM (inactive); with OVCAR-8, > 100 µM (inactive); in the test on SK-MEL-5, > 100 µM (inactive); with SN12C, > 100 µM (inactive). Besides, the GI50 with SR, with TK-10, with U-251 and with UACC-62 was > 100 µM (inactive) throughout.
